Data reported in ChEMBL document CHEMBL1140456, “Synthesis and screening of 3-substituted thioxanthen-9-one-10,10-dioxides” (Bioorg Med Chem Lett, 2007).

Biological target: Breast cancer type 1 susceptibility protein (Homo sapiens, UniProt P38398)
Assay: Inhibition of BRCA1 assessed as BRCT-BACH1 interaction

Breast cancer type 1 susceptibility protein, sequence (P38398 whole entry): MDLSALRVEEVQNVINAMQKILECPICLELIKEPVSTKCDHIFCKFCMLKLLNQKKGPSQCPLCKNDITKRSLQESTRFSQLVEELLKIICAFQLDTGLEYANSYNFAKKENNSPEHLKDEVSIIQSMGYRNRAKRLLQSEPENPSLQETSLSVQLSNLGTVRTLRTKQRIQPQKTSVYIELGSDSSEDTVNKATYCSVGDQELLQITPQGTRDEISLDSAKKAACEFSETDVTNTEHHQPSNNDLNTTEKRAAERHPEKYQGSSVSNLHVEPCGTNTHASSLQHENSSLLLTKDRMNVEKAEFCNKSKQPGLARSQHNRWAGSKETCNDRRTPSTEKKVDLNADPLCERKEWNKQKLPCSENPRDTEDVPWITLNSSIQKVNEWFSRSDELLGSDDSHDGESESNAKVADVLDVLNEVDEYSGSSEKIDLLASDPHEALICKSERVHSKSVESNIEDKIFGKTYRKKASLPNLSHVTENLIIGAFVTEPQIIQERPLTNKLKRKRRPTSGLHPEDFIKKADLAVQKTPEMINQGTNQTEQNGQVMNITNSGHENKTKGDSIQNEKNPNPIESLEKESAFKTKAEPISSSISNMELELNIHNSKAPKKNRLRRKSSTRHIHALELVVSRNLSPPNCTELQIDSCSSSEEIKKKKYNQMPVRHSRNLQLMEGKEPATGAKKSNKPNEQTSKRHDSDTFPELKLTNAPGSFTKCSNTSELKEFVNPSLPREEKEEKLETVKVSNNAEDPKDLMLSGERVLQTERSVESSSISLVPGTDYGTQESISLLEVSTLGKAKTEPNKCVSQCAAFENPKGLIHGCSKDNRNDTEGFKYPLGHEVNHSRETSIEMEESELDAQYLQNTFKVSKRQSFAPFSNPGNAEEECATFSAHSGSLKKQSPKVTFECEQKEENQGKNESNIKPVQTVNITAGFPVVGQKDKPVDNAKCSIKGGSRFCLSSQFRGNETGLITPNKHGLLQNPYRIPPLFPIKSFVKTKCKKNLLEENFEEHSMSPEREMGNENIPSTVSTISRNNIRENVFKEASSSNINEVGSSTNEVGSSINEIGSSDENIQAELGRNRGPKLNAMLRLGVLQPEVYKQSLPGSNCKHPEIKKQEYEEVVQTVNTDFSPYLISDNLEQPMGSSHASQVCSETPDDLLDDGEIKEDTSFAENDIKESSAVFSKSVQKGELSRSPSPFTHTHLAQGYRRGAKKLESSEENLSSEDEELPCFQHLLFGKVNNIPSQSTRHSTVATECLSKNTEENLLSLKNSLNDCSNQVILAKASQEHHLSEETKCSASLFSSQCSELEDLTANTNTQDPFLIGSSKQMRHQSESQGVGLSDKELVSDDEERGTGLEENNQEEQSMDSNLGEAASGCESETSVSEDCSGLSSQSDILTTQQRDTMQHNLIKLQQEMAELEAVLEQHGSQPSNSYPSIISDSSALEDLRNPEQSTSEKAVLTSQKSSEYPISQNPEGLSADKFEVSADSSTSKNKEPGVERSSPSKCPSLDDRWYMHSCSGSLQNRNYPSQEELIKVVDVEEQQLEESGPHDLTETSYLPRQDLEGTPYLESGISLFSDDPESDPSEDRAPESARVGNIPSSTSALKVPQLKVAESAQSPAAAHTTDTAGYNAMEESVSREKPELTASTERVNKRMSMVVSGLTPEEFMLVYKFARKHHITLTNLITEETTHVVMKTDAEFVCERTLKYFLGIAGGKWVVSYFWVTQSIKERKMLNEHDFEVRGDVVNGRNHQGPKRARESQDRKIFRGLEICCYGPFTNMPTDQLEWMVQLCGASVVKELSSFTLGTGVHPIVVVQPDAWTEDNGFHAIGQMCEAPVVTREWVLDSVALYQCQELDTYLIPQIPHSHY

Row | Ki | SMILES
1 | 38 µM | O=C1c2ccccc2S(=O)(=O)c2cc(N3CCC(Cc4ccccc4)CC3)ccc21
2 | 30 µM | NC(=O)C1CCN(c2ccc3c(c2)S(=O)(=O)c2ccccc2C3=O)CC1
3 | 39 µM | CC1CCN(c2ccc3c(c2)S(=O)(=O)c2ccccc2C3=O)CC1
